Measurements published in patent US11066369B2, “N-(pyridin-2-yl)pyridine-sulfonamide derivatives and their use in the treatment of disease” (Novartis AG, priority 2016, dated 2021).
Counter-ions that a name gives are not always drawn.

How the values were obtained:
delF508-CFTR = target: T1, delF508-CFTR (Homo sapiens, UniProt P13569, DEL508-508); experiment: Measurement of delF508-CFTR functional activity in primary human bronchial epithelial cells (HBECs) using Multi-Transepithelial Clamp Circuit (MTECC-24) assay; assay type: cell-based; settings: primary CF HBECs; for MTECC24 CFHBEC- Amax %: test compound added 24h before assay plus potentiator, relative to reference combination (2 μM corrector + 0.5 μM potentiator); for EC50: test compound added 24h before assay, in the presence of potentiator, mean of at least two replicates, read-out: MTECC24 CFHBEC- EC50
T1 construct: functional activity of the CFTR channel (Chloride ion transport) in patient derived primary human bronchial epithelial cells; host or cells: patient-derived primary human bronchial epithelial cells (delF508-CFTR)
T1 sequence (P13569 with tags, fused parts or gaps DEL508-508): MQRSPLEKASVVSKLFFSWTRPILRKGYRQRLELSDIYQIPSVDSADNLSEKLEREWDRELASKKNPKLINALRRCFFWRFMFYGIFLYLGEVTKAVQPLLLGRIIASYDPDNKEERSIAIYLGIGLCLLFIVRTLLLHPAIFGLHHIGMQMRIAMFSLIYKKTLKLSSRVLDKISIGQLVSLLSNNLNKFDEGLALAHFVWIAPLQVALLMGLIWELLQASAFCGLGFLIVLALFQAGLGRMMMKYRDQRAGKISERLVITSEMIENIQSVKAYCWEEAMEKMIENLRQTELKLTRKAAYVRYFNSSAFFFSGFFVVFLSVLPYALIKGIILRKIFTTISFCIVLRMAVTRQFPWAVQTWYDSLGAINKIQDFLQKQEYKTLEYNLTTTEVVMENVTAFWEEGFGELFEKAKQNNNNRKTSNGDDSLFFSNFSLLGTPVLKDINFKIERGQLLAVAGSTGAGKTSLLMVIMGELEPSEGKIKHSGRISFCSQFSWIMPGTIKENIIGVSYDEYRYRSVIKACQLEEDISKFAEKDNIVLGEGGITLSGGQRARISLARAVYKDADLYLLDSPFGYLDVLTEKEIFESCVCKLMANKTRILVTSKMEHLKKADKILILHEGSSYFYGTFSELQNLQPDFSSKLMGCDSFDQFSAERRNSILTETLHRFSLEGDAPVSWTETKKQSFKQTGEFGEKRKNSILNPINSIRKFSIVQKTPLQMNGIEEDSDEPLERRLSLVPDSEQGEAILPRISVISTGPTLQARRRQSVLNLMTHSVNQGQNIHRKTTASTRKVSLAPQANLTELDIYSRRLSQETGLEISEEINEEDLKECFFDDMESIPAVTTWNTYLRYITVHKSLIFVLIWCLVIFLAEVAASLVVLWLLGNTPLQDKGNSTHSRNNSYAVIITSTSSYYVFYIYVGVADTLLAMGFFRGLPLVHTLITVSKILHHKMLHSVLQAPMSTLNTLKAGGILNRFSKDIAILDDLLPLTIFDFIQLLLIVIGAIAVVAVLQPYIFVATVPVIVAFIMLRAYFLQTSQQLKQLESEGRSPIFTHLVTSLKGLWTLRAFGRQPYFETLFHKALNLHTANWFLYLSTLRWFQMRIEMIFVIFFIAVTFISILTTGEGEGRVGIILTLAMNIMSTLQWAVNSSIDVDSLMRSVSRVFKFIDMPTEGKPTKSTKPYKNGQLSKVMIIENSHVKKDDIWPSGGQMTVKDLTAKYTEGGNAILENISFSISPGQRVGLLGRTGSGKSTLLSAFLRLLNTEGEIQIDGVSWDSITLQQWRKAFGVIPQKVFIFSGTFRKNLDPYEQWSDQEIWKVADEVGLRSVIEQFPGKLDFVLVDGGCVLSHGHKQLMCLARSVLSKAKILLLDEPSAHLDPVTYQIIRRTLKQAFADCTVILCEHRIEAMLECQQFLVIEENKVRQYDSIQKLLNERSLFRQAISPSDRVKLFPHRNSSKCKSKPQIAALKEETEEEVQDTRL
How it was run: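 Patient-derived primary delF508-CFTR HBECs, differentiated at air-liquid interface ~2 weeks, treated basolaterally with compound for 24 h, then apical and basolateral compound in HEPES pH 7.4 assay medium. Equivalent short-circuit current (Ieq) recorded on MTECC-24 with sequential amiloride, forskolin, potentiator and INH-172; normalized to 0.1% DMSO, EC50 from curve fit.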

[1] = target: T2, horseradish peroxidase (HRP) tagged delF508-CFTR (Homo sapiens, UniProt P13569, DEL508-508); experiment: Measurement of delF508-CFTR-HRP surface expression in CFBE41o- cells; assay type: cell-based; settings: delF508-CFTR-HRP surface expression, CFBE41o- cells; for Emax: read-out: DelF508-CFTR-HRP Amax %; for EC50: read-out: DelF508-CFTR-HRP EC50;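 as to DelF508-CFTR-HRP Amax %: percent efficacy relative to reference corrector lumacaftor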
T2 construct: expressed in transfected cells
T2 sequence (P13569 with tags, fused parts or gaps DEL508-508): as above
How it was run: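 CFBE41o- bronchial epithelial cells stably expressing delF508-CFTR with HRP in the fourth extracellular loop; expression induced 48h with 500 ng/mL doxycycline, then compounds added (top 10 μM, 10-point 3-fold series, ≤0.5% DMSO) for 24h at 37° C. Surface HRP measured by luminescence with cell-impermeant substrate; EC50 from logistic fit of triplicates, plate-normalized to lowest concentration; efficacy also relative to a reference corrector.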

SMILES | MTECC24 CFHBEC- Amax % (delF508-CFTR) [%] | EC50 (delF508-CFTR) [nM] | Emax [1] [%] | EC50 [1] [nM]
Cc1ccc(F)cc1-c1nc(NS(=O)(=O)c2ccc(N)nc2)ccc1Cl [Example 44, 6-amino-N-(5-chloro-6-(5-fluoro-2-methylphenyl)pyridin-2-yl)pyridine-3-sulfonamide] | 61.6 | 46 | 346 | 1770
Nc1cccc(S(=O)(=O)Nc2ccc(Cl)c(-c3cc(C(F)(F)F)ccc3Cl)n2)n1 [Example 43, 6-amino-N-(5-chloro-6-(2-chloro-5-(trifluoromethyl)phenyl)pyridin-2-yl)pyridine-2-sulfonamide] | 54.2 | 63.3 | 361 | 2120
Cc1cccc(C)c1-c1cc(C(F)(F)F)cc(NS(=O)(=O)c2cccc(N)n2)n1 [Example 5, 6-amino-N-(6-(2,6-dimethylphenyl)-4-(trifluoromethyl)pyridin-2-yl)pyridine-2-sulfonamide] | 97.56 | 3 | 629 | 1150
Cc1cccc(C)c1-c1nc(NS(=O)(=O)c2ccnc(N)c2)ccc1Cl [Example 4, 2-amino-N-(5-chloro-6-(2,6-dimethylphenyl)pyridin-2-yl)pyridine-4-sulfonamide] | 52.0 | 40.8 | 632 | 912
Cc1c(F)cccc1-c1nc(NS(=O)(=O)c2cccc(N3CCC(C)(C(=O)O)CC3)n2)ccc1Cl [Example 253, 1-(6-(N-(5-chloro-6-(3-fluoro-2-methylphenyl)pyridin-2-yl)sulfamoyl)pyridin-2-yl)-4-methylpiperidine-4-carboxylic Acid] | 67.1 | 27.8 | 203 | 2290
Cc1cccc(C)c1-c1nc(NS(=O)(=O)c2cccc(N3CCN[C@H](CO)C3)n2)ccc1C(F)(F)F [Example 173, (S)—N-(6-(2,6-dimethylphenyl)-5-(trifluoromethyl)pyridin-2-yl)-6-(3-(hydroxymethyl)piperazin-1-yl)pyridine-2-sulfonamide Hydrochloride] | 61.4 | 76.9 | 682 | 2370
Cc1cccc(C)c1-c1nc(NS(=O)(=O)c2cccc(O[C@H]3CC[C@H](C(=O)O)CC3)n2)ccc1Cl [Example 130, (1r,4r)-4-((6-(N-(5-chloro-6-(2,6-dimethylphenyl)pyridin-2-yl)sulfamoyl)pyridin-2-yl)oxy)cyclohexane-1-carboxylic Acid] | 37.9 | 84.1 | 157 | 2920
CC1(O)CN(c2cccc(S(=O)(=O)Nc3ccc(Cl)c(-c4ccc(F)cc4Cl)n3)n2)C1 [Example 213, N-(5-chloro-6-(2-chloro-4-fluorophenyl)pyridin-2-yl)-6-(3-hydroxy-3-methylazetidin-1-yl)pyridine-2-sulfonamide] | 78.0 | 47.8 | 224 | 2490
Cc1ccc(F)cc1-c1nc(NS(=O)(=O)c2cccc(N3CCC(O)C3C(=O)O)n2)ccc1C(F)(F)F (centres unmarked) [Example 315, 1-(6-(N-(6-(5-fluoro-2-methylphenyl)-5-(trifluoromethyl)pyridin-2-yl)sulfamoyl)pyridin-2-yl)-3-hydroxypyrrolidine-2-carboxylic Acid] | 60.9 | 52 | 269 | 3290
Cc1ccc(F)cc1-c1nc(NS(=O)(=O)c2ccnc(N3CCNCC3)c2)ccc1C(F)(F)F [Example 326, N-(6-(5-fluoro-2-methylphenyl)-5-(trifluoromethyl)pyridin-2-yl)-2-(piperazin-1-yl)pyridine-4-sulfonamide] | 50.5 | 203 | 103 | 3810
Nc1cc(S(=O)(=O)Nc2ccc(Cl)c(-c3ccccc3C(F)(F)F)n2)ccn1 [Example 61, 2-amino-N-(5-chloro-6-(2-(trifluoromethyl)phenyl)pyridin-2-yl)pyridine-4-sulfonamide] | 74.0 | 103 | 251 | 2620
O=S(=O)(Nc1ccc(C(F)(F)F)c(-c2cccc(F)c2Cl)n1)c1cccc(N2CC(O)C2)n1 [Example 230, N-(6-(2-chloro-3-fluorophenyl)-5-(trifluoromethyl)pyridin-2-yl)-6-(3-hydroxyazetidin-1-yl)pyridine-2-sulfonamide] | 60.6 | 21.1 | 513 | 2940
Cc1ccccc1-c1nc(NS(=O)(=O)c2cccc(N3CC(O)(C(F)(F)F)C3)n2)ccc1C(F)(F)F [Example 204, 6-(3-hydroxy-3-(trifluoromethyl)azetidin-1-yl)-N-(6-(o-tolyl)-5-(trifluoromethyl)pyridin-2-yl)pyridine-2-sulfonamide] | 90.6 | 5.7 | 943 | 1730
Cc1cccc(C)c1-c1nc(NS(=O)(=O)c2cccc(NC3CCOCC3)n2)ccc1Cl [Example 271, N-[5-chloro-6-(2,6-dimethylphenyl)pyridin-2-yl]-6-[(oxan-4-yl)amino]pyridine-2-sulfonamide] | 66.6 | 8.8 | 837 | 1080
Cc1ccccc1-c1nc(NS(=O)(=O)c2cccc(N3CCC4(CCC[C@H]4N)CC3)n2)ccc1C(F)(F)F [Example 304, (R)-6-(1-amino-8-azaspiro[4.5]decan-8-yl)-N-(6-(o-tolyl)-5-(trifluoromethyl)pyridin-2-yl)pyridine-2-sulfonamide] | 63.4 | 8.5 | 421 | 3920
Cc1ccccc1-c1nc(NS(=O)(=O)c2cccc(N3CC(C)(O)C3)n2)ccc1Br [Example 207, N-(5-bromo-6-(o-tolyl)pyridin-2-yl)-6-(3-hydroxy-3-methylazetidin-1-yl)pyridine-2-sulfonamide] | 78.0 | 19.4 | 503 | 2270
Cc1cccc(C)c1-c1cc(Cl)cc(NS(=O)(=O)c2cccc(N)n2)n1 [Example 10, 6-amino-N-(4-chloro-6-(2,6-dimethylphenyl)pyridin-2-yl)pyridine-2-sulfonamide] | 87.0 | 5.8 | 592 | 1530
Nc1cccc(S(=O)(=O)Nc2ccc(C(F)(F)F)c(-c3ccccc3C(F)(F)F)n2)n1 [Example 18, 6-amino-N-(5-(trifluoromethyl)-6-(2-(trifluoromethyl)phenyl)pyridin-2-yl)pyridine-2-sulfonamide] | 65.5 | 7.9 | 505 | 1890
Cc1ccccc1-c1nc(NS(=O)(=O)c2cccc(N[C@H]3C[C@@H](O)C3)n2)ccc1C(F)(F)F [Example 283, N-[6-(2-methylphenyl)-5-(trifluoromethyl)pyridin-2-yl]-6-{[(1s,3s)-3-hydroxycyclobutyl]amino}pyridine-2-sulfonamide] | 84.0 | 0.8 | – | 1590
Nc1cccc(S(=O)(=O)Nc2ccc(Cl)c(-c3ccc(F)cc3Cl)n2)n1 [Example 56, 6-amino-N-(5-chloro-6-(2-chloro-4-fluorophenyl)pyridin-2-yl)pyridine-2-sulfonamide] | 63.9 | 28.3 | 301 | 2580
Cc1ccccc1-c1nc(NS(=O)(=O)c2cccc(N[C@@H]3CCOC[C@H]3O)n2)ccc1C(F)(F)F [Example 274, 6-(((3S,4R)-3-hydroxytetrahydro-2H-pyran-4-yl)amino)-N-(6-(o-tolyl)-5-(trifluoromethyl)pyridin-2-yl)pyridine-2-sulfonamide] | 77.0 | 3.3 | 779 | 1870
Cc1ccc(F)cc1-c1nc(NS(=O)(=O)c2ccnc(N3CC(C)(O)C3)c2)ccc1C(F)(F)F [Example 320, N-(6-(5-fluoro-2-methylphenyl)-5-(trifluoromethyl)pyridin-2-yl)-2-(3-hydroxy-3-methylazetidin-1-yl)pyridine-4-sulfonamide] | 74.2 | 126 | 545 | 2220
Cc1ccccc1-c1nc(NS(=O)(=O)c2cccc(O[C@@H]3COC[C@@]3(C)O)n2)ccc1C(F)(F)F (single isomer, unassigned) [Example 295] | 68.7 | 26.1 | 468 | 2030
Cc1ccc(F)cc1-c1nc(NS(=O)(=O)c2cccc(N)n2)ccc1C(F)(F)F [Example 1, 6-amino-N-(6-(5-fluoro-2-methylphenyl)-5-(trifluoromethyl)pyridin-2-yl)pyridine-2-sulfonamide] | 78.9 | 4 | 867 | 1780
